# Measurements reported in ChEMBL document CHEMBL1201862, “PubChem BioAssay data set” (2004).
# Activity calls are given as the source filed them.
# Assays:
# [1] = target: T1, Insulin-degrading enzyme (Homo sapiens, UniProt P14735); assay: recombinant IDE activation, cell-free – biochemical, fluorescence polarization, counter-screen for IDE activator project, dose response (AID 588681)
# T1 sequence (P14735 whole entry): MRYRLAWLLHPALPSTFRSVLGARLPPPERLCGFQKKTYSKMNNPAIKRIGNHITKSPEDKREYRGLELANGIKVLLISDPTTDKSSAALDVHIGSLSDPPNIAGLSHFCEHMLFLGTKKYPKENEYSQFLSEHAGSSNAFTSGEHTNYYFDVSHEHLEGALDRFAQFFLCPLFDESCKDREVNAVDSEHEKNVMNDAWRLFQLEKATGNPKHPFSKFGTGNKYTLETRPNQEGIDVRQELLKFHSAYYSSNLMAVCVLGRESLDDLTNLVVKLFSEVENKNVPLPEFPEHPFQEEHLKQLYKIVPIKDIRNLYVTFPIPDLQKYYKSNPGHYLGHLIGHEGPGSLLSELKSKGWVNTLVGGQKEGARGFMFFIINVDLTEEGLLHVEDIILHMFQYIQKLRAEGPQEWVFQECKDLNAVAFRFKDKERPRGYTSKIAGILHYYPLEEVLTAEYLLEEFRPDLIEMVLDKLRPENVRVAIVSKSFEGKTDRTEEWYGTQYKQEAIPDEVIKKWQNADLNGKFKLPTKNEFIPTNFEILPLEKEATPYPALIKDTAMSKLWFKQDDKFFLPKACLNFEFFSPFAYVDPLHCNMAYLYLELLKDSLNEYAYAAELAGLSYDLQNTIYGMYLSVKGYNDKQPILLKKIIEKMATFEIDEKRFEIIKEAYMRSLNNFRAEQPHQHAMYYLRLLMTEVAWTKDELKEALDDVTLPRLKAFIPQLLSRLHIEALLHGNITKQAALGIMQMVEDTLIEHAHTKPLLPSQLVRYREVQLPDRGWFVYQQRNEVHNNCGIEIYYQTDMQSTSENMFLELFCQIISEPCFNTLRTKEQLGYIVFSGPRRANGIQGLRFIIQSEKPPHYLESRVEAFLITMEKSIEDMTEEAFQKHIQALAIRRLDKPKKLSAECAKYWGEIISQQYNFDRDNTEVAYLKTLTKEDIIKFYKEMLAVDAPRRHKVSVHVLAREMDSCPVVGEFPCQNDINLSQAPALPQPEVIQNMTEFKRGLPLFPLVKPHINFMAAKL
# [2] = tested on: HEK293; assay: membrane integrity loss in HEK cells – cell-based, fluorescence, cytotoxicity control for IDE activator project, dose response (AID 588440); assay type: functional; conditions: Homo sapiens;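 note: cytotoxicity by LDH release measuring loss of membrane integrity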
# [3] = target: T2, Apoptotic protease-activating factor 1 (Homo sapiens, UniProt O14727); assay type: functional;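 for EC50 Mean: caspase-3 cleavage of fluorogenic Rh110 DEVD substrate downstream of apoptosome activation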
# T2 sequence (O14727 whole entry): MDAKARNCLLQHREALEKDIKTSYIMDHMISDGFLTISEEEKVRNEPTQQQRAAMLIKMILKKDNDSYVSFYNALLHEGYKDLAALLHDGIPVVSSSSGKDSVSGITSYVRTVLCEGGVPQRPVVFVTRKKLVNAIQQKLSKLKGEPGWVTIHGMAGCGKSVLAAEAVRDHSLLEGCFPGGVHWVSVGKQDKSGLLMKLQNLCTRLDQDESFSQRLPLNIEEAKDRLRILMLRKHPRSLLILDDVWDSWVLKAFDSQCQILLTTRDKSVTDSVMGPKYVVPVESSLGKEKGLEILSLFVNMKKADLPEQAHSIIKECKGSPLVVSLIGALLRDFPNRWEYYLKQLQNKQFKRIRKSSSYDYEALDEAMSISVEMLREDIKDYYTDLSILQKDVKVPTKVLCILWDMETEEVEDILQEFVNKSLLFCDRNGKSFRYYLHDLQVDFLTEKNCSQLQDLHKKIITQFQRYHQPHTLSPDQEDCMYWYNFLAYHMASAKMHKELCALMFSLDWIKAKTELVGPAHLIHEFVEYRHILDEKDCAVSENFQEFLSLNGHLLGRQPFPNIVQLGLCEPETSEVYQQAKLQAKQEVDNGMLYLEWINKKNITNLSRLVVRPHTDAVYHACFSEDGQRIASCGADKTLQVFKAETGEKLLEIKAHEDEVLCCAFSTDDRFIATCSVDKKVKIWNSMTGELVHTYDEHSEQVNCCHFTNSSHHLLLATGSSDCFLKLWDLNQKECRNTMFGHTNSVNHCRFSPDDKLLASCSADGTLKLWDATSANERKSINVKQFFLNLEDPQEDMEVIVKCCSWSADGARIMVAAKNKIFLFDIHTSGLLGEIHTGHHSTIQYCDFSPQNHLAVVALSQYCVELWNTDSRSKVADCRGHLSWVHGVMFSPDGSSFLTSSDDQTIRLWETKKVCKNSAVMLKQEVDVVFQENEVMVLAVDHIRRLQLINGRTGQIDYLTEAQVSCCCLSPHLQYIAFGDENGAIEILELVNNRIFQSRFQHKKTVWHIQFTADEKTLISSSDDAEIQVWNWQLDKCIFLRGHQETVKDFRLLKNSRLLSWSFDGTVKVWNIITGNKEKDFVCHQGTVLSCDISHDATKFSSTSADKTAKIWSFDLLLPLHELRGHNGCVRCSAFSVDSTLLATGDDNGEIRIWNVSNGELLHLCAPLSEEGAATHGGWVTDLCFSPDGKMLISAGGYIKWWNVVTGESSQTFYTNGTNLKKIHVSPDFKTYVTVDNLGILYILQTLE
# [4] = target: T1, Insulin-degrading enzyme; assay: cellular IDE activation of Abeta substrate cleavage – fluorescence polarization, HEK cells, dose response (AID 588439); assay type: functional, cell-based
# [5] = tested on: HEK293; assay: optical interference in Abeta FP readout, dose response, artefact control for IDE activator project, biochemical, fluorescence polarization (AID 588442); assay type: functional, cell-based; conditions: Homo sapiens
# [6] = target: Melanocortin receptor 4 (Homo sapiens, UniProt P32245); assay: inhibitors of MC4R cAMP signaling – cell-based, TR-FRET, biased antagonists, dose response (AID 602298); assay type: functional;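 note: antagonist potency against agonist-stimulated cAMP production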
# Chain of Melanocortin receptor 4 (P32245 whole entry): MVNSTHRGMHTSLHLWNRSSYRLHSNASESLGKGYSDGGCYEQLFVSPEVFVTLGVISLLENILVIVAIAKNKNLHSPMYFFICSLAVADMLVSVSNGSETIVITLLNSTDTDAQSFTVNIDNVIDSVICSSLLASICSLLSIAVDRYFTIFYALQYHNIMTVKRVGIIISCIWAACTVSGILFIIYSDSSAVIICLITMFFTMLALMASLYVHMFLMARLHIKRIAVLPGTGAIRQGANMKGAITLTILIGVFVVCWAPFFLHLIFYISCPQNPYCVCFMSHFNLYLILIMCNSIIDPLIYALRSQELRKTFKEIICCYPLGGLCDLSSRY
# [7] = cAMP pathway inhibition in counterscreen cell line – TR-FRET cAMP detection, counter-screen for MC4R biased antagonist project, dose response (AID 602305); assay type: functional, cell-based;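 note: U2OS cells stimulated with forskolin near its EC80 as the cAMP inducer; potency is for inhibition of forskolin-stimulated cAMP signaling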
# [8] = A cytotoxicity screen of small molecule inhibitors of the PhoP region in Salmonella typhi identified in the primary screen. [Related pubchem assays: 1850, 1864, 1985 ]; assay type: functional
# [9] = target: T3, High affinity choline transporter 1 (Homo sapiens, UniProt Q9GZV3); assay: human choline transporter blockers, potency – cell-based, 10-point CRC, membrane potential dye, dose response (AID 588401); assay type: functional;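 note: membrane potential dye fluorescence of choline-evoked depolarization via CHT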
# T3 sequence (Q9GZV3 whole entry): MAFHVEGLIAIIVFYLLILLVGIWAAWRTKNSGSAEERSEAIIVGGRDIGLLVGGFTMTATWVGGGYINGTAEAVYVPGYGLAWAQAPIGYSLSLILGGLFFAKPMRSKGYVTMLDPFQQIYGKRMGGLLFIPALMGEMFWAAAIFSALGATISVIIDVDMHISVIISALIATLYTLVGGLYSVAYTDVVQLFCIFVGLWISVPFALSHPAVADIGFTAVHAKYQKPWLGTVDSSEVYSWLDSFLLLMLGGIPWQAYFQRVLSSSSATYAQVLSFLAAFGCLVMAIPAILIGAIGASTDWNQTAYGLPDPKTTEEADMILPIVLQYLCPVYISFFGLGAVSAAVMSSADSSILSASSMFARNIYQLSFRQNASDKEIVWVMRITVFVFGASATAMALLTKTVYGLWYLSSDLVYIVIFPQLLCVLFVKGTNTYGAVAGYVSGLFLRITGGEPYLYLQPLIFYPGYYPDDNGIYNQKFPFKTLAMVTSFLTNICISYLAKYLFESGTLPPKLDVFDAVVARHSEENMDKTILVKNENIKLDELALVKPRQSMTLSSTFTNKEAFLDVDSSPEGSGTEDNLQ
# [10] = target: T3, High affinity choline transporter 1; assay: human choline transporter blockers, potency – cell-based, 5-point CRC, membrane potential dye, dose response (AID 504840); assay type: functional
# [11] = target: T2, Apoptotic protease-activating factor 1; assay: SAR analysis of small molecule Activators of Apaf-1 in a Fluorescent assay.; assay type: functional; conditions: read-out: EC50_Mean
# [12] = target: 26S proteasome non-ATPase regulatory subunit 14 (Homo sapiens, UniProt O00487); assay: inhibition of proteasome subunit RPN11 – biochemical, fluorescence polarization, uHTS hits, confirmation (AID 602368); assay type: functional
# Chain of 26S proteasome non-ATPase regulatory subunit 14 (O00487 whole entry, the tested form may be a part): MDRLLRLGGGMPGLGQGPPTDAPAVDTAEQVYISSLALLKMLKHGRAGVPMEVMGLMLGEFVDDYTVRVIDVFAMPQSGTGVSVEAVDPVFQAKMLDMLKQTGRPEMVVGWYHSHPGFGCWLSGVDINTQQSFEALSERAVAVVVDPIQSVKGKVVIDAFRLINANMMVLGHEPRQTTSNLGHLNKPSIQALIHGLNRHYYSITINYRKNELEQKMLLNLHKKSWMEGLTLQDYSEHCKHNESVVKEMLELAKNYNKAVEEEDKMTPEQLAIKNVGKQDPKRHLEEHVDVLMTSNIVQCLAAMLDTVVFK
# [13] = target: T4, Carboxy-terminal domain RNA polymerase II polypeptide A small phosphatase 1 (Homo sapiens, UniProt Q9GZU7); assay: CTDSP1 inhibitors, concentration-response, biochemical, absorbance readout, ultra-high-throughput screen actives (AID 540297); assay type: functional
# T4 sequence (Q9GZU7 whole entry): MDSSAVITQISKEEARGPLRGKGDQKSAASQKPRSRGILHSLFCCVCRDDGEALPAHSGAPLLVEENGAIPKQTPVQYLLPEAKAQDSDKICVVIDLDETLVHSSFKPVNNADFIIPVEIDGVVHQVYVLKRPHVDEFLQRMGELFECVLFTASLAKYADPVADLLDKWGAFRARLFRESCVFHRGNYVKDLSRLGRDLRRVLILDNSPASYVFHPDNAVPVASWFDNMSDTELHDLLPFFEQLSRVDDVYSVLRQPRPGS
# [14] = target: Prothrombin (Bos taurus, UniProt P00735); assay: thrombin protease inhibitors – biochemical, fluorescence polarization, uHTS hits, dose response (AID 602369); assay type: functional
# [15] = target: 72 kDa type IV collagenase (Homo sapiens, UniProt P08253); assay: Dose Response validation of uHTS RPN11 inhibitor hits using a MMP-2 Fluorescence assay.; assay type: functional
# Chain of 72 kDa type IV collagenase (P08253 whole entry): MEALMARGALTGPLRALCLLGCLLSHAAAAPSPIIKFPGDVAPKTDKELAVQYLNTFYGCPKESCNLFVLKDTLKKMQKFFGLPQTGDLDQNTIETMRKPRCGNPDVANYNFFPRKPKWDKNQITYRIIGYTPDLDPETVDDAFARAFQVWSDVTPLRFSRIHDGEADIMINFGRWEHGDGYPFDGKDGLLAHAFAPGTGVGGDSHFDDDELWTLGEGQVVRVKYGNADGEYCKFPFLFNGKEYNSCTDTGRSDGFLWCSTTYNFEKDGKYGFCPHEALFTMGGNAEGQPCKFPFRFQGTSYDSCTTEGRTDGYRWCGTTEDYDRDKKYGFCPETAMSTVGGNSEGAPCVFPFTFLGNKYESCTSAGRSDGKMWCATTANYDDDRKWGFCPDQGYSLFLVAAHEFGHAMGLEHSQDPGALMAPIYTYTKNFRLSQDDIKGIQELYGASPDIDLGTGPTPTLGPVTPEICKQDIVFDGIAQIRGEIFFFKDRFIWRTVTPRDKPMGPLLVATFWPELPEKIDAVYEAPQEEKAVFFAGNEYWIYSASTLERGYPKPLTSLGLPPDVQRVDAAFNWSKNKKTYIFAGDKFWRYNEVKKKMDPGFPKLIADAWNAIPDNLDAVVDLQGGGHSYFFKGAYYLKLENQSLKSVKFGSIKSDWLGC
# [16] = target: Cell division cycle 7-related protein kinase (Homo sapiens, UniProt O00311); assay type: functional;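 note: value obtained from a kinome-wide kinase panel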
# Chain of Cell division cycle 7-related protein kinase (O00311 whole entry): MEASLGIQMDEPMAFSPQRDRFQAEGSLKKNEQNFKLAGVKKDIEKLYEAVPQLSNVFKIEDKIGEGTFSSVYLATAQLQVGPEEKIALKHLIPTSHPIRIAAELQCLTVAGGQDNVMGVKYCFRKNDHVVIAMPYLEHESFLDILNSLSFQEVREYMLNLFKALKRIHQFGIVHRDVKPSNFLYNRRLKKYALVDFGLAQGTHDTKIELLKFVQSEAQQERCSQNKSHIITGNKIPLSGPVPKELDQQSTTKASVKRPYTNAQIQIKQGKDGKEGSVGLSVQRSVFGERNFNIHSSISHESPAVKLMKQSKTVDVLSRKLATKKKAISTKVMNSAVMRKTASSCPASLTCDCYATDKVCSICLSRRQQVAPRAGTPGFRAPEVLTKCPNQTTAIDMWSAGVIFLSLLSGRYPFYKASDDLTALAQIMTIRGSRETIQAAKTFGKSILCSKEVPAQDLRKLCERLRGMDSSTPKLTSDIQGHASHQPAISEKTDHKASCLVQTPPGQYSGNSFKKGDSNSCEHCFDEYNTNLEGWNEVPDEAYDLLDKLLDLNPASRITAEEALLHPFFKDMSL
# [17] = target: Dual specificity protein kinase CLK4 (Homo sapiens, UniProt Q9HAZ1); assay type: functional
# Chain of Dual specificity protein kinase CLK4 (Q9HAZ1 whole entry): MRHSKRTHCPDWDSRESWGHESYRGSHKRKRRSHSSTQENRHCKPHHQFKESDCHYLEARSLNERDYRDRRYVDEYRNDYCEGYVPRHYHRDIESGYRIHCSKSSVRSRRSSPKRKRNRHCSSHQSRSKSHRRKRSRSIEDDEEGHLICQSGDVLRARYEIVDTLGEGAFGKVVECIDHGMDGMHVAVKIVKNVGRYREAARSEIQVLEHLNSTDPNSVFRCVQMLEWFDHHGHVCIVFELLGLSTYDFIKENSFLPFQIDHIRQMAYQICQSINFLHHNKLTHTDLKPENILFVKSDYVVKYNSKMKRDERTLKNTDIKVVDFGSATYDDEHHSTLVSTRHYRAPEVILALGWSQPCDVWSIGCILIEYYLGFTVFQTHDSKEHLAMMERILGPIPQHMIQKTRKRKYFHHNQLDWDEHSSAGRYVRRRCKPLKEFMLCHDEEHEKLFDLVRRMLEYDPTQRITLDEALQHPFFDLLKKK
# [18] = target: cAMP-dependent protein kinase catalytic subunit alpha (Homo sapiens, UniProt P17612); assay type: functional
# [19] = target: T5, Interleukin-1 receptor-associated kinase 4 (Homo sapiens, UniProt Q9NWZ3); assay type: functional
# T5 sequence (Q9NWZ3 whole entry): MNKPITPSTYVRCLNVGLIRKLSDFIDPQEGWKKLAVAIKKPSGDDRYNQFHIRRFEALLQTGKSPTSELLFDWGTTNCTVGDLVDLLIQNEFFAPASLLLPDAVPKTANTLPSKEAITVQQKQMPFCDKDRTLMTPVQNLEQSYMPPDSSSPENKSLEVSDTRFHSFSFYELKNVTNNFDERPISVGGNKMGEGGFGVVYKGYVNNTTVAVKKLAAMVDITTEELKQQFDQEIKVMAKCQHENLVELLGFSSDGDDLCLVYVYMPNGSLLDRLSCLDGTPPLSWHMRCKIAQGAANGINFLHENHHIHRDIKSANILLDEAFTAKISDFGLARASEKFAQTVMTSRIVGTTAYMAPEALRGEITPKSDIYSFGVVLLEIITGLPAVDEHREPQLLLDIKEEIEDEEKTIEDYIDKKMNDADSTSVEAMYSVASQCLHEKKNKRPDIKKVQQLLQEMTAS
# [20] = target: MAP kinase-interacting serine/threonine-protein kinase 2 (Homo sapiens, UniProt Q9HBH9); assay type: functional
# Chain of MAP kinase-interacting serine/threonine-protein kinase 2 (Q9HBH9 whole entry): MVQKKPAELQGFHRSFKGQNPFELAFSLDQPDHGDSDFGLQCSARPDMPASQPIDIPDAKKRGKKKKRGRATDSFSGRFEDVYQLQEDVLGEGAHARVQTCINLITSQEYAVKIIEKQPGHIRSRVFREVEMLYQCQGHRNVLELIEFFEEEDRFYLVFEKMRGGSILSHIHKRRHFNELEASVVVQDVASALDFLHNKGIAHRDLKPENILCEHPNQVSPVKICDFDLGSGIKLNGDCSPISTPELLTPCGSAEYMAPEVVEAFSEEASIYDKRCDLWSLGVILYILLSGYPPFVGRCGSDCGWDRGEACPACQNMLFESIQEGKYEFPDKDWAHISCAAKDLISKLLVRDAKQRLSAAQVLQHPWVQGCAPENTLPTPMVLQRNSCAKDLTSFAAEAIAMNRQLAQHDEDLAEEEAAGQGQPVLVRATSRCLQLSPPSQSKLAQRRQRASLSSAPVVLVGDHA
# [21] = target: Serine/threonine-protein kinase pim-1 (Homo sapiens, UniProt P11309); assay type: functional
# Chain of Serine/threonine-protein kinase pim-1 (P11309 whole entry): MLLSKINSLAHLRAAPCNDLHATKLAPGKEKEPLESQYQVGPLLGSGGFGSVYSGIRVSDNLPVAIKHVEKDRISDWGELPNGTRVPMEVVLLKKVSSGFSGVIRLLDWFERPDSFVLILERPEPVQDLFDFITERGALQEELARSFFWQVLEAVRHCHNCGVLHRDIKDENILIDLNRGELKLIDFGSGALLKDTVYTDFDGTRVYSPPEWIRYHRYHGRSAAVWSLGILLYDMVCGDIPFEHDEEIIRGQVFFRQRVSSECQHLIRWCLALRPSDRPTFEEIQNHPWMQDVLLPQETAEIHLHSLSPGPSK
# [22] = target: Glycogen synthase kinase-3 beta (Homo sapiens, UniProt P49841); assay type: functional;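 note: value comes from a broad kinome profiling panel, with GSK3B as the panel member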
# Chain of Glycogen synthase kinase-3 beta (P49841 whole entry): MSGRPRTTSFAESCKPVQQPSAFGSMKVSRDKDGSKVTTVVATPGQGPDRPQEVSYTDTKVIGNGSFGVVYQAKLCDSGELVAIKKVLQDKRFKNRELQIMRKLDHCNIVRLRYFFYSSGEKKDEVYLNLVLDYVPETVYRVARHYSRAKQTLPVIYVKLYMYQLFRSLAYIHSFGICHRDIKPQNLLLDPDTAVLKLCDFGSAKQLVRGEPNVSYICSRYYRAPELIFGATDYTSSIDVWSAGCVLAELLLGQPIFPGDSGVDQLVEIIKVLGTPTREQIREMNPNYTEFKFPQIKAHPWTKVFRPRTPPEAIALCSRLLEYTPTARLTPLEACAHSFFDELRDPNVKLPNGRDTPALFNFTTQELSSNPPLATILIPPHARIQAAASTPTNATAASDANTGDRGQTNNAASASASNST
# [23] = target: Homeodomain-interacting protein kinase 2 (Homo sapiens, UniProt Q9H2X6); assay type: functional;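 note: measured within a kinome-wide kinase profiling panel, HIPK2 being one panel member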
# Chain of Homeodomain-interacting protein kinase 2 (Q9H2X6 whole entry): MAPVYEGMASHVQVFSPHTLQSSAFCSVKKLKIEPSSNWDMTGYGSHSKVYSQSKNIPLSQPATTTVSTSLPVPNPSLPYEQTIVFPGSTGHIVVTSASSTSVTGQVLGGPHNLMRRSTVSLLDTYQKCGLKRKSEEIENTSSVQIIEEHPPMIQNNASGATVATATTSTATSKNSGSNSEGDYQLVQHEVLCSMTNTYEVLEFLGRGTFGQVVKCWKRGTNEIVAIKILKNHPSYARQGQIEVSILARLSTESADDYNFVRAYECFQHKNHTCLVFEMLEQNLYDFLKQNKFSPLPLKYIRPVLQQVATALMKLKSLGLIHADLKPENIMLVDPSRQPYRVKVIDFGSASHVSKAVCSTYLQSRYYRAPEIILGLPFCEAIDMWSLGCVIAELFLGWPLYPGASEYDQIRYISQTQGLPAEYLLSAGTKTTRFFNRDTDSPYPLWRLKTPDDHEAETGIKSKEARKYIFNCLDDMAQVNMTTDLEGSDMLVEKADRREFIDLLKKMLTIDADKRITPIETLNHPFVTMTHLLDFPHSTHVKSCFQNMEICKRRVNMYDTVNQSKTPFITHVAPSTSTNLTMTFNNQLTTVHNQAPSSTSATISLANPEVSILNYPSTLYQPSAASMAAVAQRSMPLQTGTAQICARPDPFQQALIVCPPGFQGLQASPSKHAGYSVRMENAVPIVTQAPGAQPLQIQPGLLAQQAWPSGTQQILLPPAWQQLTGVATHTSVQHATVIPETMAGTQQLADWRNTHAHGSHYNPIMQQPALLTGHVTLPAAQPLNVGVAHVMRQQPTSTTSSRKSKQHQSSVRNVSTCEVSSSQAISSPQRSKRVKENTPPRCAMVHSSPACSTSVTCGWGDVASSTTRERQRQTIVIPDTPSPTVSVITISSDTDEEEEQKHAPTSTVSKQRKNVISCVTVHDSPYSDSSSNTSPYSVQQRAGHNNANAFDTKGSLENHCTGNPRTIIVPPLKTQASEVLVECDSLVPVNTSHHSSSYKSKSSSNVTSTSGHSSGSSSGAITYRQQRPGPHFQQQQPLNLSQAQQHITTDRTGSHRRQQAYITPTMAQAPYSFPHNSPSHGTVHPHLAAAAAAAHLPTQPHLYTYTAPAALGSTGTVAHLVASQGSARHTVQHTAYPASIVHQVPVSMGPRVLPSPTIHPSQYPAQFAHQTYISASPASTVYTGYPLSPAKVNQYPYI
# [24] = target: Mitogen-activated protein kinase kinase kinase kinase 4 (Homo sapiens, UniProt O95819); assay type: functional
smiles,measurement,setting,value
CCCCNc1c(-c2ccc(SC(C)CC)cc2)nc2cnccn12 (stereo not drawn),EC50,[1],> 54.7 µM (inactive)
same,IC50,[2],27.4 µM (inactive)
same,IC50,[3],63.1 µM (active)
same,EC50,[4],> 54.7 µM (inactive)
same,EC50,[5],> 55.9 µM (inactive)
Cc1ccc(S(=O)(=O)NCC(=O)OCc2nnc(-c3ccccc3)o2)cc1,IC50,[6],> 64.6 µM (inactive)
same,IC50,[7],> 64.6 µM (inactive)
COc1cc2c(cc1NC(=O)COC(=O)CNS(=O)(=O)c1ccc(C)cc1)oc1ccccc12,IC50,[6],> 64.6 µM (inactive)
same,IC50,[7],> 64.6 µM (inactive)
O=C(On1c(-c2ccccc2)nc2ccccc2c1=O)c1ccco1,EC50,[8],> 50 µM (active)
same,IC50,[9],8.91 µM (active)
same,IC50,[10],4.57 µM (active)
CCOc1ccc(C(=O)CC(C(=O)O)c2cn(C)c3ccccc23)cc1 (stereo not drawn),EC50,[11],> 100 µM (inactive)
CCN(CC(=O)Nc1c(F)cccc1F)C(=O)CCc1nc2sc3c(c2c(=O)[nH]1)CCCC3,IC50,[12],19.9 µM (active)
same,IC50,[13],4.4 µM (active)
same,IC50,[14],85.3 µM (active)
same,IC50,[15],> 100 µM (inactive)
Cc1cc(NS(=O)(=O)c2ccc(NC(=O)c3ccc(Cl)cc3Cl)cc2)no1,IC50,[9],4.47 µM (active)
same,IC50,[10],5.81 µM (active)
Nc1n[nH]c2ccc(-c3cc(Cc4ccccc4)no3)cc12,Ki,[16],0.0316 µM (active)
same,Ki,[17],0.01 µM (active)
same,Ki,[18],0.316 µM (active)
same,Ki,[19],6.31 µM (active)
same,Ki,[20],1 µM (active)
same,Ki,[21],> 10 µM (inactive)
same,Ki,[22],0.158 µM (active)
same,Ki,[23],1.58 µM (active)
same,Ki,[24],0.501 µM (active)
